Test results: patent publication US8017600B2, “Imidazole compounds” (Janssen Pharmaceutica NV, priority 2004, dated 2011)

Each molecule was assayed against T1, human histamine H4 receptor (Homo sapiens, UniProt Q9H3N8) (assay: Binding assay on recombinant human histamine H4 receptor (3H-histamine displacement)). Details: membranes of SK-N-MC or COS7 cells expressing human H4 receptor, Cheng-Prusoff.
T1 construct: expressed in transfected cells; host or cells: SK-N-MC cells or COS7 cells, transient transfection; cell membranes
Experimental: SK-N-MC cells or COS7 cells were transiently transfected with pH4R and grown in 150 cm^2 tissue culture dishes. Cells were washed with saline solution, scraped with a cell scraper and collected by centrifugation (1000 rpm, 5 min). Cell membranes were prepared by homogenization of the cell pellet in 20 mM Tris-HCl with a polytron tissue homogenizer for 10 sec at high speed. Homogenate was centrifuged at 1000 rpm for 5 min at 4° C. The supernatant was then collected and centrifuged at 20,000×g for 25 min at 4° C. The final pellet was resuspended in 50 mM Tris-HCl. Cell membranes were incubated with ^3H-histamine (5-70 nM) in the presence or absence of excess histamine (10,000 nM). Incubation occurred at room temperature for 45 min. Membranes were harvested by rapid filtration over Whatman GF/C filters and washed 4 times with ice-cold 50 mM Tris HCl. Filters were then dried, mixed with scintillant and counted for radioactivity. SK-N-MC or COS7 cells expressing human histamine H4 receptor were used to measure the affinity of binding of other compounds and their ability to displace ^3H-ligand binding by incubating the above-described reaction in the presence of various concentrations of inhibitor or compound to be tested.

T1 sequence (Q9H3N8 whole entry): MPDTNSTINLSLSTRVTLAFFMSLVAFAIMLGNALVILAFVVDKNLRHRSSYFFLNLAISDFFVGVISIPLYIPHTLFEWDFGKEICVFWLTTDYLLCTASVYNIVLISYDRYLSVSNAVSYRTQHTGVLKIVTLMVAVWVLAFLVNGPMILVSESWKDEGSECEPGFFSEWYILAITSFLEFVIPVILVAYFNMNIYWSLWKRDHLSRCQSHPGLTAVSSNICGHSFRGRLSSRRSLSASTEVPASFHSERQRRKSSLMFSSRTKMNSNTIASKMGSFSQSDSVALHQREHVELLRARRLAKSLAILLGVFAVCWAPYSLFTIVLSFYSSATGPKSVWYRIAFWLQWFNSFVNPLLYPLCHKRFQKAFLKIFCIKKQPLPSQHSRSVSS

SMILES | Ki
Cc1nc(-c2ccc(OCCCN3CCN(C)CC3)cc2Cl)[nH]c1C [Example 43, 1-{3-[3-Chloro-4-(4,5-dimethyl-1H-imidazol-2-yl)-phenoxy]-propyl}-4-methyl-piperazine] | 2510 nM
CN1CCC(CCCOc2ccc(-c3nc(-c4ccccc4)c(C(F)(F)F)[nH]3)cn2)CC1 [Example 31, 2-[3-(1-Methyl-piperidin-4-yl)-propoxy]-5-(4-phenyl-5-trifluoromethyl-1H-imidazol-2-yl)-pyridine] | 186 nM
Cc1[nH]c(-c2ccc(OCCCC3CCN(C)CC3)nc2)nc1-c1cccc(C(F)(F)F)c1 [Example 29, 2-[3-(1-Methyl-piperidin-4-yl)-propoxy]-5-[5-methyl-4-(3-trifluoromethyl-phenyl)-1H-imidazol-2-yl]-pyridine] | 42 nM
CCCc1[nH]c(-c2ccc(OCCCC3CCN(C)CC3)cc2Cl)nc1C [Example 24, 4-{3-[3-Chloro-4-(4-methyl-5-propyl-1H-imidazol-2-yl)-phenoxy]-propyl}-1-methyl-piperidine] | 69 nM
CN1CCC(CCCCOc2cccc(-c3nc4cccnc4[nH]3)c2)CC1 [Example 69, 2-{3-[4-(1-Methyl-piperidin-4-yl)-butoxy]-phenyl}-3H-imidazo[4,5-b]pyridine] | 1410 nM
Cc1cc(OCCCC2CCN(C)CC2)ccc1-c1nc(-c2ccccc2)c(C(F)(F)F)[nH]1 [Example 14, 1-Methyl-4-{3-[3-methyl-4-(4-phenyl-5-trifluoromethyl-1H-imidazol-2-yl)-phenoxy]-propyl}-piperidine] | 32 nM
Cc1[nH]c(-c2ccc(OCCCC3CCN(C)CC3)nc2)nc1-c1cc(Cl)cc(Cl)c1 [Example 27, 5-[4-(3,5-Dichloro-phenyl)-5-methyl-1H-imidazol-2-yl]-2-[3-(1-methyl-piperidin-4-yl)-propoxy]-pyridine] | 290 nM
CN1CCCN(CCCOc2ccc(-c3nc(-c4ccccc4)c(C(F)(F)F)[nH]3)cc2Cl)CC1 [Example 45, 1-{3-[2-Chloro-4-(4-phenyl-5-trifluoromethyl-1H-imidazol-2-yl)-phenoxy]-propyl}-4-methyl-[1,4]diazepane] | 79 nM
CN1CCN(CCCOc2ccc(-c3nc(-c4ccccc4)c(C(F)(F)F)[nH]3)c(Cl)c2)CC1 [Example 44, 1-{3-[3-Chloro-4-(4-phenyl-5-trifluoromethyl-1H-imidazol-2-yl)-phenoxy]-propyl}-4-methyl-piperazine] | 20 nM
Cc1[nH]c(-c2ccc(OCCCC3CCN(C)CC3)cc2Cl)nc1-c1cccc(C(F)(F)F)c1 [Example 16, 4-(3-{3-Chloro-4-[5-methyl-4-(3-trifluoromethyl-phenyl)-1H-imidazol-2-yl]-phenoxy}-propyl)-1-methyl-piperidine] | 165 nM
CN1CCN(CCCOc2ccc(-c3ncc[nH]3)cc2Cl)CC1 [Example 42, 1-{3-[2-Chloro-4-(1H-imidazol-2-yl)-phenoxy]-propyl}-4-methyl-piperazine] | 1960 nM
COc1cccc(-c2nc(-c3ccc(OCCCN4CCCN(C)CC4)cc3Cl)[nH]c2-c2cccc(OC)c2)c1 [Example 10, 1-(3-{4-[4,5-Bis-(3-methoxy-phenyl)-1H-imidazol-2-yl]-3-chloro-phenoxy}-propyl)-4-methyl-[1,4]diazepane] | 6 nM
Cc1cc(OCCCC2CCN(C)CC2)ccc1-c1nc(C)c(CC(C)C)[nH]1 [Example 38, 4-{3-[4-(5-Isobutyl-4-methyl-1H-imidazol-2-yl)-3-methyl-phenoxy]-propyl}-1-methyl-piperidine] | 230 nM
CN1CCN(CCCOc2ccc(-c3nc(-c4ccccc4)c(-c4ccccc4)[nH]3)c(Cl)c2)CC1 [Example 2, 1-{3-[3-Chloro-4-(4,5-diphenyl-1H-imidazol-2-yl)-phenoxy]-propyl}-4-methyl-piperazine] | 39 nM
CN1CCC(CCCCOc2cc(-c3nc(-c4ccccc4)c(C(F)(F)F)[nH]3)ccn2)CC1 [Example 36, 2-[4-(1-Methyl-piperidin-4-yl)-butoxy]-4-(4-phenyl-5-trifluoromethyl-1H-imidazol-2-yl)-pyridine] | 54 nM
Cc1cc(OCCOC2CCN(C)CC2)ccc1-c1nc(-c2cccc(C(F)(F)F)c2)c(C)[nH]1 [Example 26, 1-Methyl-4-(2-{3-methyl-4-[5-methyl-4-(3-trifluoromethyl-phenyl)-1H-imidazol-2-yl]-phenoxy}-ethoxy)-piperidine] | 300 nM
CN1CCCN(CCCOc2ccc(-c3nc4c([nH]3)CCCC4)c(Cl)c2)CC1 [Example 13, 2-{2-Chloro-4-[3-(4-methyl-[1,4]diazepan-1-yl)-propoxy]-phenyl}-4,5,6,7-tetrahydro-1H-benzoimidazole] | 32 nM

SMILES | Ki
CCc1[nH]c(-c2ccc(OCCCC3CCN(C)CC3)cc2Cl)nc1C [Example 25, 4-{3-[3-Chloro-4-(5-ethyl-4-methyl-1H-imidazol-2-yl)-phenoxy]-propyl}-1-methylpiperidine] | 100 nM
Cc1[nH]c(-c2ccc(OCCCC3CCN(C)CC3)nc2)nc1-c1ccc(Cl)cc1 [Example 28, 5-[4-(4-Chloro-phenyl)-5-methyl-1H-imidazol-2-yl]-2-[3-(1-methyl-piperidin-4-yl)-propoxy]-pyridine] | 72 nM
COc1cccc(-c2nc(-c3ccc(OCCCN4CCN(C)CC4)cc3Cl)[nH]c2-c2cccc(OC)c2)c1 [Example 7, 1-(3-{4-[4,5-Bis-(3-methoxy-phenyl)-1H-imidazol-2-yl]-3-chloro-phenoxy}-propyl)-4-methyl-piperazine] | 21 nM
Cc1cc(OCCCC2CCN(C)CC2)ccc1-c1nc(-c2cccc(C(F)(F)F)c2)c(C)[nH]1 [Example 46, 1-Methyl-4-(3-{3-methyl-4-[5-methyl-4-(3-trifluoromethyl-phenyl)-1H-imidazol-2-yl]-phenoxy}-propyl)-piperidine] | 16 nM
COc1cccc(-c2nc(-c3ccc(OCCCC4CCN(C)CC4)cc3Cl)[nH]c2-c2cccc(OC)c2)c1 [Example 21, 4-(3-{4-[4,5-Bis-(3-methoxy-phenyl)-1H-imidazol-2-yl]-3-chloro-phenoxy}-propyl)-1-methyl-piperidine] | 37 nM
CN1CCC(CCCOc2ccc(-c3nc(-c4ccccc4)c(C(F)(F)F)[nH]3)c(Cl)c2)CC1 [Example 15, 4-{3-[3-Chloro-4-(4-phenyl-5-trifluoromethyl-1H-imidazol-2-yl)-phenoxy]-propyl}-1-methyl-piperidine] | 38 nM
Cc1[nH]c(-c2ccnc(OCCCCC3CCN(C)CC3)c2)nc1-c1cccc(C(F)(F)F)c1 [Example 37, 2-[4-(1-Methyl-piperidin-4-yl)-butoxy]-4-[5-methyl-4-(3-trifluoromethyl-phenyl)-1H-imidazol-2-yl]-pyridine] | 174 nM
CN1CCN(CCCOc2ccc(-c3nc(-c4ccccc4Cl)c(-c4ccccc4Cl)[nH]3)c(Cl)c2)CC1 [Example 3, 1-(3-{4-[4,5-Bis-(2-chloro-phenyl)-1H-imidazol-2-yl]-3-chloro-phenoxy}-propyl)-4-methyl-piperazine] | 244 nM
CN1CCC(CCCCOc2cccc(-c3nc(-c4ccccc4)c(C(F)(F)F)[nH]3)c2)CC1 [Example 35, 1-Methyl-4-{4-[3-(4-phenyl-5-trifluoromethyl-1H-imidazol-2-yl)-phenoxy]-butyl}-piperidine] | 57 nM
Cc1cc(OCCOC2CCN(C)CC2)ccc1-c1nc(-c2ccc(Cl)cc2)c(C)[nH]1 [Example 48, 4-(2-{4-[4-(4-Chloro-phenyl)-5-methyl-1H-imidazol-2-yl]-3-methyl-phenoxy}-ethoxy)-1-methyl-piperidine] | 620 nM
CN1CCC(CCCOc2ccc(-c3nc4c([nH]3)CCCC4)c(Cl)c2)CC1 [Example 23, 2-{2-Chloro-4-[3-(1-methyl-piperidin-4-yl)-propoxy]-phenyl}-4,5,6,7-tetrahydro-1H-benzoimidazole] | 155 nM
CN1CCCN(CCCOc2ccc(-c3nc4c([nH]3)CCCC4)cc2Cl)CC1 [Example 12, 2-{3-Chloro-4-[3-(4-methyl-[1,4]diazepan-1-yl)-propoxy]-phenyl}-4,5,6,7-tetrahydro-1H-benzoimidazole] | 65 nM
Cc1[nH]c(-c2ccc(OCCCC3CCN(C)CC3)cc2Cl)nc1-c1cc(Cl)cc(Cl)c1 [Example 17, 4-(3-{3-Chloro-4-[4-(3,5-dichloro-phenyl)-5-methyl-1H-imidazol-2-yl]-phenoxy}-propyl)-1-methyl-piperidine] | 52 nM
Cc1ccc(-c2nc(-c3ccc(OCCCN4CCN(C)CC4)cc3Cl)[nH]c2-c2ccc(C)cc2)cc1 [Example 5, 1-{3-[3-Chloro-4-(4,5-di-p-tolyl-1H-imidazol-2-yl)-phenoxy]-propyl}-4-methyl-piperazine] | 24 nM
Cc1[nH]c(-c2ccc(OCCCC3CCN(C)CC3)nc2)nc1-c1ccc(C(F)(F)F)cc1 [Example 30, 2-[3-(1-Methyl-piperidin-4-yl)-propoxy]-5-[5-methyl-4-(4-trifluoromethyl-phenyl)-1H-imidazol-2-yl]-pyridine] | 64 nM
Cc1cc(OCCCC2CCN(C)CC2)ccc1-c1nc(-c2cc(Cl)cc(Cl)c2)c(C)[nH]1 [Example 18, 4-(3-{4-[4-(3,5-Dichloro-phenyl)-5-methyl-1H-imidazol-2-yl]-3-methyl-phenoxy}-propyl)-1-methyl-piperidine] | 45 nM
COc1ccc(-c2nc(-c3ccc(OCCCN4CCN(C)CC4)cc3Cl)[nH]c2-c2ccc(OC)cc2)cc1 [Example 4, 1-(3-{4-[4,5-Bis-(4-methoxy-phenyl)-1H-imidazol-2-yl]-3-chloro-phenoxy}-propyl)-4-methyl-piperazine] | 44 nM
